The record followed here is patent US12595281B2, “Indodicarbocyanine phosphoramidites with bathochromically shifted absorption and emission, and tunable hydrophobicity” (The Government of the United States of America, as …, priority 2022, dated 2026).

The nature of this data set: Methanol content to elute DNA-dye sequences from reverse phase HPLC column. The following applies: average over sequences HJA-D and HJAcomp containing the dye. Format: physicochemical. As to the method: Desalted oligo solutions were then analyzed by liquid chromatography-mass spectrometry (LCMS, see Characterization below for more detail) to confirm the presence of correct sequence in the crude product. Samples containing the confirmed dye-labeled DNA sequences were then pooled and purified by preparatory scale reverse phase HPLC (2707 Autosampler, 2545 Quaternary Gradient Module, 2998 Photodiode Array Detector, and Fraction Collector III, Waters, Inc, Milford, MA) using an XBridge OST C18 OBD 19×50 mm column (Part No. 186008962, Waters, Inc, Milford, MA) with a gradient of increasing methanol in 0.1 M TEAA (aq.). For Cy5-hex, Cy5-Peg and Cy5-tBu containing sequences, LC fractions were concentrated to dryness directly from the 0.1 M TEAA buffer/methanol solution. […] Dried LC fractions were reconstituted in small volumes of water (Optima Grade), to keep concentration sufficiently high (25-50 μM) to visualize and separate low percentage impurities on LCMS. Purified fractions were combined, concentrated, then re-analyzed via LCMS for a final purity assessment.
Due to the overall poor solubility of the parent cyanine dye derivatives in water, the octanol-water partition coefficient (log P) could not be determined by the traditional “shake flask” method. In lieu of this approach, modelling software developed by Advanced Chemistry Development, Inc. was used to predict the partition coefficient and solubility in water (log S0), as shown in Table 2. As an additional means of comparison with direct relevance to the final intended utility of these oligos, the average concentration of methanol required to elute the DNA sequences containing the given dye from the reverse phase HPLC column was determined (the greater the methanol content required to elute, the more hydrophobic the dye). The DNA-dye sequences were utilized for this instead of the free dyes because they are capable of eluting at lower methanol content, but the hydrophobic character of the dye still dominates the elution profile. […] This is in close agreement with the relative “stickiness” of the DNA-dye sequences towards […] stationary phase.
Take `CCCCCCOc1ccc2c(c1)C(C)(C)C(=CC=CC=CC1=[N+](CCCO)c3ccc(OCCCCCC)cc3C1(C)C)N2CCCOC(c1ccccc1)(c1ccccc1)c1ccc(OC)cc1.[I-]` [Cy5-hex, 1-(3-hydroxypropyl)-1′-(3-monomethoxytritylpropyl)-5,5′-bis(n-hexyloxy)-3,3,3′,3′-tetramethyl-dicarboindocyanine iodide]: the “Av. % MeOH for DNA-dye elution” value is 51%.

With `COCCOCCOCCOc1ccc2c(c1)C(C)(C)C(=CC=CC=CC1=[N+](CCCO)c3ccc(OCCOCCOCCOC)cc3C1(C)C)N2CCCOC(c1ccccc1)(c1ccccc1)c1ccc(OC)cc1.[I-]` [Cy5-Peg, 1-(3-hydroxypropyl)-1′-(3-monomethoxytritylpropyl)-5,5′-bis{2-[2-(2-methoxyethoxy)ethoxy]ethoxy}-3,3,3′,3′-tetramethyl-dicarboindocyanine iodide], the “Av. % MeOH for DNA-dye elution” value stood at 31.5%.

Consider `COc1ccc(C(OCCCN2C(=CC=CC=CC3=[N+](CCCO)c4ccc(Cl)cc4C3(C)C)C(C)(C)c3cc(Cl)ccc32)(c2ccccc2)c2ccccc2)cc1.[I-]` [Cy5-Cl, 5,5′-dichloro-1-(3-hydroxypropyl)-1′-(3-monomethoxytritylpropyl)-tetramethyl-dicarboindocyanine iodide], for which the “Av. % MeOH for DNA-dye elution” value was found to be 30.5%.

`COc1ccc(C(OCCCN2C(=CC=CC=CC3=[N+](CCCO)c4ccc(C(C)(C)C)cc4C3(C)C)C(C)(C)c3cc(C(C)(C)C)ccc32)(c2ccccc2)c2ccccc2)cc1.[I-]` [Cy5-tBu, 1-(3-hydroxypropyl)-1′-(3-monomethoxytritylpropyl)-5,5′-bis(tert-butyl)-3,3,3′,3′-tetramethyl-dicarboindocyanine iodide]: the “Av. % MeOH for DNA-dye elution” value was 41%.
